Test results published in patent US20240116988A1, “ANTI-ROR1 MACROCYCLIC PEPTIDES AND COMPOSITIONS” (BRISTOL-MYERS SQUIBB COMPANY, priority 2022, published 2024).
Positions of bridges follow the written chain, without caps; N, C: chain ends. Non-standard residues stand in square brackets, D forms with d. Residues, ends and D or L forms follow the SMILES beside them. ξ: configuration not given here. NMeF = CN[C@@H](Cc1ccccc1)C(=O)O; ξY = NC(Cc1ccc(O)cc1)C(=O)O; NMeA = CN[C@@H](C)C(=O)O; AEEA = NCCOCCOCC(=O)O

target: T1, human ROR1 (Homo sapiens, UniProt Q01973); test: ROR1 high content cell-based binding assay; settings: read-out: ROR1 Binding 293T Human HC Cell Based Assay IC50
T1 construct: host or cells: HEK 293T cells, Tet-on system induced with doxycycline
Procedure: ROR1 high content cell-based binding assay: Human embryonic kidney 293T cells (293T) expressing human ROR1 with Tet-on system by doxycycline were used (Arctic-488134) for the assessment of inhibition of the binding of fluorescently-labeled competing peptide (“Probe”) that specifically binds to human ROR1. […] Cryopreserved vials were thawed in a 37° C. water bath. Cells were washed in assay culture media [DMEM (Life Technologies Inc. Cat. […] Cat. No. 15140-122) and […] dox] and diluted 1.0×10^5 cells/mL. Cells were seeded into PDL-coated 384 well plates (BD Falcon Cat. No. 356663) at 2,000 cells/20 μL. Plates were allowed to incubate for 10 minutes at room temperature and then transferred to a 37° C./5% CO2 incubator for overnight incubation. The next day, 125 nL of the test compound was added using an ECHO followed by the addition of 5 μL/well of 5-FAM-labeled probe to cells at a final concentration of 30 nM. Sample were incubated for 1 hour at 37° C. for 1 hour, followed by 3 washes in […] of dPBS. Cells were fixed by adding 8% (w/v) formaldehyde (Sigma Cat. No. 252549), 20 μg/mL Hoechst (Thermo Scientific Cat. No. 62249) in PBS for 20 minutes at room temperature. The plates were washed 3 more times in dPBS and 15 μl of PBS was left in the wells following the last wash. The plates were sealed, and data was using obtained using a CellInsight NXT High Content Screening Platform IC903000 (Thermo Scientific).

T1 sequence (Q01973 30-937): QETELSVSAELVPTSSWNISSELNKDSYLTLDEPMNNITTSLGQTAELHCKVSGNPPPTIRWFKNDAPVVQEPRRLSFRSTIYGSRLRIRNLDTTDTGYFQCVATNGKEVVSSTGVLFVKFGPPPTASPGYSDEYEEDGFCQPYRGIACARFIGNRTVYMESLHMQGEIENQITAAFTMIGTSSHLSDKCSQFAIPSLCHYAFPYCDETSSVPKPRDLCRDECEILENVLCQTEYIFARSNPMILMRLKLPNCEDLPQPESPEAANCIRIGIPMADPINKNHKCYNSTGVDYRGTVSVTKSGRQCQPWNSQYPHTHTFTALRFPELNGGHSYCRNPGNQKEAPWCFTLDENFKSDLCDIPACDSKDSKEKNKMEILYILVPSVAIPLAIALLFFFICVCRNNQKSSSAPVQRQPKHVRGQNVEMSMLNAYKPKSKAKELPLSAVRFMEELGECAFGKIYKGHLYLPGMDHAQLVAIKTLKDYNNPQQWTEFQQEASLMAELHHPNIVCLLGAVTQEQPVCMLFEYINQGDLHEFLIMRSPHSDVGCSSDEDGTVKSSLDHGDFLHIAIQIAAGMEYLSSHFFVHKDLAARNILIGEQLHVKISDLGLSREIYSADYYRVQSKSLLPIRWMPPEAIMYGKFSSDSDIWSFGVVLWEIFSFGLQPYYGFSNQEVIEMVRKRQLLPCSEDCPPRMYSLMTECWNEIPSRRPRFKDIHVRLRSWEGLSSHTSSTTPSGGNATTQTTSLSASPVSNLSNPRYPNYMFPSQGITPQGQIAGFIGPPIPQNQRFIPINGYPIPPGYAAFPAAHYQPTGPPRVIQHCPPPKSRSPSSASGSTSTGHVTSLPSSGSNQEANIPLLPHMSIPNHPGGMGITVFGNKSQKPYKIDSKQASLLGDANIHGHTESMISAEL

Row | IC50 [nM] | SMILES
1 | 49 | CC(C)C[C@@H]1NC(=O)[C@H](Cc2c[nH]c3ccccc23)NC(=O)[C@H](Cc2ccc(O)cc2)NC(=O)[C@H](Cc2c[nH]c3ccccc23)NC(=O)CNC(=O)[C@H](CO)NC(=O)[C@H](Cc2ccc(O)cc2)NC(=O)[C@H](C(C)C)NC(=O)[C@@H]2CCCN2C(=O)[C@H](Cc2ccc(O)cc2)NC(=O)[C@H](Cc2ccccc2)NC(=O)CSC[C@@H](C(=O)NCC(N)=O)NC1=O [Example 1001] ({CH2CO}-FYPVYSGWYWLCG-NH2; thioether N-12)
2 | 217 | CC(C)C[C@@H]1NC(=O)[C@H](Cc2ccc(O)cc2)NC(=O)[C@H](Cc2ccccc2)NC(=O)CSC[C@@H](C(=O)NCC(=O)O)NC(=O)[C@H](CC(C)C)NC(=O)[C@H](Cc2ccccc2)N(C)C(=O)[C@H](Cc2ccc(O)cc2)NC(=O)[C@H](Cc2c[nH]c3ccccc23)NC(=O)CNC(=O)[C@H](CO)NC(=O)[C@H](Cc2ccc(O)cc2)NC(=O)[C@H](C(C)C)NC1=O [Example 1080] ({CH2CO}-FYLVYSGWY[NMeF]LCG-OH; thioether N-12)
3 | 637 | CC(C)C[C@@H]1NC(=O)[C@H](Cc2ccccc2)NC(=O)CSC[C@@H](C(=O)NCC(N)=O)NC(=O)[C@H](C)NC(=O)[C@H](Cc2c[nH]c3ccccc23)NC(=O)[C@H](Cc2ccc(O)cc2)NC(=O)[C@H](Cc2c[nH]c3ccccc23)NC(=O)[C@H](Cc2c[nH]c3ccccc23)NC(=O)[C@H](CCC(=O)O)NC(=O)[C@H](Cc2ccc(O)cc2)NC(=O)[C@H](C(C)C)NC(=O)[C@H](Cc2c[nH]c3ccccc23)NC1=O [Example 1013] ({CH2CO}-FLWVYEWWYWACG-NH2; thioether N-12)
4 | 23 | CC(C)C[C@@H]1NC(=O)[C@H](C)NC(=O)[C@H](Cc2ccccc2)NC(=O)CSC[C@@H](C(=O)NCC(N)=O)NC(=O)[C@H](CC(C)C)NC(=O)[C@H](Cc2ccccc2)N(C)C(=O)[C@H](Cc2ccc(O)cc2)NC(=O)[C@H](Cc2c[nH]c3ccccc23)NC(=O)CNC(=O)[C@H](CO)NC(=O)[C@H](Cc2ccc(O)cc2)NC(=O)[C@H](C(C)C)NC1=O [Example 1038] ({CH2CO}-FALVYSGWY[NMeF]LCG-NH2; thioether N-12)
5 | 367 | CC(C)C[C@@H]1NC(=O)[C@H](Cc2ccccc2)N(C)C(=O)[C@H](Cc2ccc(O)cc2)NC(=O)[C@H](Cc2c[nH]c3ccccc23)NC(=O)CNC(=O)[C@H](CO)NC(=O)[C@H](Cc2ccc(O)cc2)NC(=O)[C@H](C(C)C)NC(=O)[C@H](CCC(=O)O)NC(=O)[C@H](Cc2ccc(O)cc2)NC(=O)[C@H](Cc2ccccc2)NC(=O)CSC[C@@H](C(=O)NCC(N)=O)NC1=O [Example 1052] ({CH2CO}-FYEVYSGWY[NMeF]LCG-NH2; thioether N-12)
6 | 151 | CC(C)C[C@@H]1NC(=O)[C@H](CC(N)=O)NC(=O)[C@H](Cc2ccccc2)N(C)C(=O)CNC(=O)[C@H](Cc2ccc(O)cc2)NC(=O)[C@H](Cc2ccccc2)NC(=O)CSC[C@@H](C(=O)NCC(N)=O)NC(=O)[C@H](Cc2c[nH]c3ccccc23)NC(=O)[C@H](Cc2ccc(O)cc2)NC1=O [Example 1118] ({CH2CO}-FYG[NMeF]NLYWCG-NH2; thioether N-9)
7 | 93 | CC(C)C[C@@H]1NC(=O)[C@H](Cc2ccc(O)cc2)NC(=O)[C@H](Cc2ccccc2)NC(=O)CSC[C@@H](C(=O)NCC(N)=O)NC(=O)[C@H](CC(C)C)NC(=O)[C@H](Cc2ccccc2)N(C)C(=O)C(Cc2ccc(O)cc2)NC(=O)[C@H](Cc2c[nH]c3ccccc23)NC(=O)[C@@H](C)NC(=O)[C@H](CO)NC(=O)[C@H](Cc2ccc(O)cc2)NC(=O)[C@H](C(C)C)NC1=O (stereo partly drawn) [Example 1059] ({CH2CO}-FYLVYS[dA]W[ξY][NMeF]LCG-NH2; thioether N-12)
8 | 365 | CC(C)C[C@@H]1NC(=O)[C@H](Cc2ccc(O)cc2)NC(=O)[C@H](Cc2ccccc2)NC(=O)CSC[C@@H](C(=O)NCC(N)=O)NC(=O)[C@H](CC(C)C)NC(=O)[C@H](Cc2ccccc2)N(C)C(=O)[C@H](Cc2ccc(O)cc2)NC(=O)[C@H](Cc2c[nH]c3ccccc23)NC(=O)CNC(=O)[C@H](CO)NC(=O)CNC(=O)[C@H](C(C)C)NC1=O [Example 1025] ({CH2CO}-FYLVGSGWY[NMeF]LCG-NH2; thioether N-12)
9 | 7 | CC(C)C[C@@H]1NC(=O)[C@H](Cc2ccc(O)cc2)NC(=O)[C@H](Cc2ccccc2)NC(=O)CSC[C@@H](C(N)=O)NC(=O)[C@H](CC(C)C)NC(=O)[C@H](Cc2ccccc2)N(C)C(=O)[C@H](Cc2ccc(O)cc2)NC(=O)[C@H](Cc2c[nH]c3ccccc23)NC(=O)CNC(=O)[C@H](CO)NC(=O)[C@H](Cc2ccc(O)cc2)NC(=O)[C@H](C(C)C)NC1=O [Example 1036] ({CH2CO}-FYLVYSGWY[NMeF]LC-NH2; thioether N-12)
10 | 227 | CC[C@H](C)[C@@H]1NC(=O)CSC[C@@H](C(=O)NCC(N)=O)NC(=O)[C@H](CC(C)C)NC(=O)[C@H](Cc2ccccc2)N(C)C(=O)[C@H](Cc2ccc(O)cc2)NC(=O)[C@H](Cc2c[nH]c3ccccc23)NC(=O)CNC(=O)[C@H](CO)NC(=O)[C@H](Cc2ccc(O)cc2)NC(=O)[C@H](C(C)C)NC(=O)[C@H](CC(C)C)NC(=O)[C@H](Cc2ccc(O)cc2)NC1=O [Example 1084] ({CH2CO}-IYLVYSGWY[NMeF]LCG-NH2; thioether N-12)
11 | 246 | CC(C)C[C@@H]1NC(=O)[C@H](Cc2ccc(O)cc2)NC(=O)[C@H](Cc2ccccc2)NC(=O)CSC[C@@H](C(=O)NCC(N)=O)NC(=O)[C@H](CC(C)C)NC(=O)[C@H](Cc2ccccc2)N(C)C(=O)[C@H](Cc2ccc(O)cc2)NC(=O)[C@H](Cc2c[nH]c3ccccc23)NC(=O)CNC(=O)[C@H](CO)NC(=O)[C@H](C(C)C)NC(=O)[C@H](C(C)C)NC1=O [Example 1034] ({CH2CO}-FYLVVSGWY[NMeF]LCG-NH2; thioether N-12)
12 | 18 | CC(C)C[C@@H]1NC(=O)[C@H](Cc2ccc(O)cc2)NC(=O)[C@H](Cc2ccccc2)NC(=O)CSC[C@@H](C(=O)NCC(N)=O)NC(=O)[C@H](CC(C)C)NC(=O)[C@H](Cc2ccccc2)N(C)C(=O)[C@H](Cc2ccc(O)cc2)NC(=O)[C@H](Cc2c[nH]c3ccccc23)NC(=O)CNC(=O)[C@H](C)NC(=O)[C@H](Cc2ccc(O)cc2)NC(=O)[C@H](C(C)C)NC1=O [Example 1020] ({CH2CO}-FYLVYAGWY[NMeF]LCG-NH2; thioether N-12)
13 | 59 | CC(C)C[C@@H]1NC(=O)[C@H](Cc2ccc(O)cc2)NC(=O)[C@H](Cc2ccccc2)NC(=O)CSC[C@@H](C(=O)NCC(N)=O)NC(=O)[C@H](CC(C)C)NC(=O)[C@H](Cc2ccccc2)N(C)C(=O)[C@H](Cc2ccc(O)cc2)NC(=O)[C@H](Cc2c[nH]c3ccccc23)NC(=O)CNC(=O)[C@H](CO)NC(=O)[C@H](CO)NC(=O)[C@H](C(C)C)NC1=O [Example 1026] ({CH2CO}-FYLVSSGWY[NMeF]LCG-NH2; thioether N-12)
14 | 14 | CC(C)C[C@@H]1NC(=O)[C@H](Cc2c[nH]c3ccccc23)NC(=O)[C@H](Cc2ccc(O)cc2)NC(=O)[C@H](Cc2c[nH]c3ccccc23)NC(=O)CNC(=O)[C@H](CC(=O)O)NC(=O)[C@H](Cc2ccc(O)cc2)NC(=O)[C@H](C(C)C)NC(=O)[C@@H]2CCCN2C(=O)[C@H](Cc2ccc(O)cc2)NC(=O)[C@H](Cc2ccccc2)NC(=O)CSC[C@@H](C(N)=O)NC1=O [Example 1094] ({CH2CO}-FYPVYDGWYWLC-NH2; thioether N-12)
15 | 755 | CC(C)C[C@@H]1NC(=O)[C@H](Cc2ccccc2)NC(=O)CSC[C@@H](C(=O)NCC(N)=O)NC(=O)[C@H](CC(C)C)NC(=O)[C@H](Cc2ccccc2)N(C)C(=O)[C@H](Cc2ccc(O)cc2)NC(=O)[C@H](Cc2c[nH]c3ccccc23)NC(=O)CNC(=O)[C@H](CO)NC(=O)[C@H](Cc2ccc(O)cc2)NC(=O)[C@H](C(C)C)NC(=O)[C@H](Cc2c[nH]c3ccccc23)NC1=O [Example 1058] ({CH2CO}-FLWVYSGWY[NMeF]LCG-NH2; thioether N-12)
16 | 576 | CC(C)C[C@@H]1NC(=O)[C@H](Cc2ccc(O)cc2)NC(=O)[C@H](C)N(C)C(=O)CSC[C@@H](C(=O)NCC(N)=O)NC(=O)[C@H](CC(C)C)NC(=O)[C@H](Cc2ccccc2)N(C)C(=O)[C@H](Cc2ccc(O)cc2)NC(=O)[C@H](Cc2c[nH]c3ccccc23)NC(=O)CNC(=O)[C@H](CO)NC(=O)[C@H](Cc2ccc(O)cc2)NC(=O)[C@H](C(C)C)NC1=O [Example 1063] ({CH2CO}-[NMeA]YLVYSGWY[NMeF]LCG-NH2; thioether N-12)
17 | 177 | CC[C@H](C)[C@@H]1NC(=O)[C@H](Cc2ccccc2)NC(=O)CSC[C@@H](C(=O)NCC(=O)NCCOCCOCC(=O)N[C@@H](CCCCN)C(N)=O)NC(=O)[C@H](C)NC(=O)[C@H](Cc2ccccc2)NC(=O)[C@H](Cc2ccc(O)cc2)NC(=O)[C@H](Cc2c[nH]c3ccccc23)NC(=O)CNC(=O)[C@H](CCC(=O)O)NC(=O)[C@H](Cc2ccc(O)cc2)NC(=O)[C@H](C(C)C)NC(=O)[C@H](Cc2c[nH]c3ccccc23)NC1=O [Example 1081] ({CH2CO}-FIWVYEGWYFACG[AEEA]K-NH2; thioether N-12)
18 | 19 | CC[C@H](C)[C@@H]1NC(=O)[C@H](Cc2ccccc2)NC(=O)CSC[C@@H](C(N)=O)NC(=O)[C@H](C)NC(=O)[C@H](Cc2ccc(O)cc2)NC(=O)[C@H](Cc2ccc(O)cc2)NC(=O)[C@H](Cc2c[nH]c3ccccc23)NC(=O)CNC(=O)[C@H](Cc2ccc(O)cc2)NC(=O)[C@H](CCCNC(=N)N)NC(=O)[C@H](C(C)C)NC(=O)[C@H](Cc2c[nH]c3ccccc23)NC1=O [Example 1049] ({CH2CO}-FIWVRYGWYYAC-NH2; thioether N-12)
